We go through 41 compounds from patent US11873291B2, “Quinoline cGAS antagonist compounds” (ImmuneSensor Therapeutics, Inc., priority 2020, dated 2024).

In experiment [1] the test system is cGAS activity in Reporter THP1 cell line. In words: Cellular assay to measure cGAS activity: ISRE-Gaussia luciferase reporter THP1 cells transfected with ISD. The format is cell-based. The settings on record: Homo sapiens, THP-1, untitled table after Table 4 (continuation). The essentials:
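THP1 ISRE-Gaussia luciferase reporter cells (0.3×10^6/well) pre-incubated 5 min with compound serial dilutions, then lipofectamine-transfected with 2 μg/mL ISD (45 bp DNA) or mock. Secreted luciferase read 16 h later with 1 μM coelenterazine at pH 6.5; IC50 from fold increase over mock. Specificity counter-screen used 2 μg/mL poly(I:C) or Sendai virus 50 Unit/mL.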

Experiment [2] addresses T1, recombinant human cGAS (aa147-522) (Homo sapiens, UniProt Q8N884).
T1 construct: recombinant human cGAS (aa147-522); His6-SUMO (cleaved yes); made in house; host or cells: E. coli BL21/pLys
Kind of experiment: In vitro inhibition assay of cGAS activity (ATP consumption, KinaseGlo Max). The note with it: Table 3, read-out: cGAS Inhibition Results IC50. Format: biochemical. Summed up: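 De-tagged recombinant human cGAS (aa147-522, 1.5 μg/mL) was incubated 20 min at 37 °C with herring testis DNA, 6.6 μM ATP and 0.1 mM GTP in Tris pH 7.5/MgCl2 buffer plus serial compound dilutions. Remaining ATP was read by KinaseGlo Max luminescence, and IC50 was fitted from % ATP consumption versus log concentration.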

T1 sequence (Q8N884 147-522): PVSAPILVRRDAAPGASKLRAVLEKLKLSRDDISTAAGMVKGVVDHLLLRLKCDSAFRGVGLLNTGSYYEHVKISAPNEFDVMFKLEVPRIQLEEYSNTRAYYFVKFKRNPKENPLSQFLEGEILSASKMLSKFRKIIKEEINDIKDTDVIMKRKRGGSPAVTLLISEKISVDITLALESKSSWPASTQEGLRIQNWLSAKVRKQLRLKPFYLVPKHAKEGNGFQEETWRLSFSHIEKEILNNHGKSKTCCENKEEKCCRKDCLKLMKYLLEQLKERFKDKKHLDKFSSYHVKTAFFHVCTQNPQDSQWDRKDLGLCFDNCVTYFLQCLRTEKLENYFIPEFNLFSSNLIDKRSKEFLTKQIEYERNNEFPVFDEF

For `O=C(O)CCOC[C@@H]1C[C@H]2C[C@H]2N1c1cc(-n2ccnc2)c2ccc(Cl)c(Cl)c2n1` [I-805], the IC50 in experiment [1] and in experiment [2] was below 2000 nM throughout.

As for `O=C(O)CCOC[C@@H]1Cc2ccccc2N1c1cc(-n2ccnc2)c2ccc(Cl)c(Cl)c2n1` [I-806], the IC50 in experiment [1] is 2000 to 10000 nM; in experiment [2], below 2000 nM.

Take `O=C(O)CCOCC1CC2CCC1N2c1cc(-n2ccnc2)c2ccc(Cl)c(Cl)c2n1` (stereo not shown) [I-807]: the IC50 in experiment [1] and in experiment [2] was below 2000 nM throughout.

As for `O=C(O)CCOC[C@@H]1C[C@@H]2CCCC[C@@H]2N1c1cc(-n2ccnc2)c2ccc(Cl)c(Cl)c2n1` [I-808], the IC50 in experiment [1] and in experiment [2] was below 2000 nM each time.

For `C[C@H]1CC[C@@H](COCCC(=O)O)N1c1cc(-n2ccnc2)c2ccc(Cl)c(Cl)c2n1` [I-810], the IC50 in experiment [1] and in experiment [2] was below 2000 nM throughout.

As to `O=C(O)CCOC[C@H]1CC2CCC1N2c1cc(-n2ccnc2)c2ccc(Cl)c(Cl)c2n1` (stereo partly shown) [I-811], the IC50 in experiment [1] and in experiment [2] was below 2000 nM throughout.

Regarding `C[C@H]1CN(c2cc(-n3ccnc3)c3ccc(Cl)c(Cl)c3n2)C[C@@H]1COCCC(=O)O` [I-814], the IC50 in experiment [1] and in experiment [2] was below 2000 nM each time.

Turning to `O=C(O)C1CCCCC1OC[C@@H]1CCCN1c1cc(-n2ccnc2)c2ccc(Cl)c(Cl)c2n1` (stereo partly shown) [I-815], the IC50 in experiment [1] is 2000 to 10000 nM; in experiment [2] it was below 2000 nM.

`O=C(O)C1CCCC1OC[C@@H]1CCCN1c1cc(-n2ccnc2)c2ccc(Cl)c(Cl)c2n1` (stereo partly shown) [I-816]: the IC50 in experiment [1] and in experiment [2] was below 2000 nM in each case.

On to `O=C(O)C(O)CC[C@@H]1CCCN1c1cc(-n2ccnc2)c2ccc(Cl)c(Cl)c2n1` (stereo partly drawn) [I-817, 4-((S)-1-(7,8-dichloro-4-(1H-imidazol-1-yl)quinolin-2-yl)pyrrolidin-2-yl)-2-hydroxybutanoic acid], for which the values for the IC50 in experiment [1] and in experiment [2] were above 10000 nM and below 2000 nM, respectively.

In the case of `O=C(O)COCCC[C@@H]1CCCN1c1cc(-n2ccnc2)c2ccc(Cl)c(Cl)c2n1` [I-820], the IC50 in experiment [1] and in experiment [2] was below 2000 nM each time.

Consider `O=C(O)CCOCCOc1cc(-n2ccnc2)c2ccc(Cl)c(Cl)c2n1` [I-828, 3-(2-((7,8-dichloro-4-(1H-imidazol-1-yl)quinolin-2-yl)oxy)ethoxy)propanoic acid], for which the IC50 in experiment [1] is above 10000 nM; in experiment [2], 2000 to 30000 nM.

As for `O=C(O)CCOCC1(CNc2cc(-n3ccnc3)c3ccc(Cl)c(Cl)c3n2)CC1` [I-829], the IC50 was 2000 to 10000 nM in experiment [1] and below 2000 nM in experiment [2].

Take `O=C(O)CCCCCNc1cc(-c2cn[nH]c2)c2ccc(Cl)c(Cl)c2n1` [I-830]: the IC50 in experiment [1] and in experiment [2] was below 2000 nM in each case.

Consider `O=C(O)CCCCCCNc1cc(-n2ccnc2)c2ccc(Cl)c(Cl)c2n1` [I-831], for which the results for the IC50 in experiment [1] and in experiment [2] were 2000 to 10000 nM and below 2000 nM, respectively.

In the case of `CCN(CCOCCC(=O)O)c1cc(-n2ccnc2)c2ccc(Cl)c(Cl)c2n1` [I-832], the IC50 in experiment [1] and in experiment [2] was below 2000 nM in each case.

Take `CC(C)N(CCOCCC(=O)O)c1cc(-n2ccnc2)c2ccc(Cl)c(Cl)c2n1` [I-833]: the IC50 in experiment [1] and in experiment [2] was below 2000 nM each time.

On to `O=C(O)CCOCCN(c1cc(-n2ccnc2)c2ccc(Cl)c(Cl)c2n1)C1CC1` [I-834], for which the IC50 in experiment [1] and in experiment [2] was below 2000 nM in each case.

For the compound `O=C(O)CCCCNc1cc(-n2ccnc2)c2ccc(Cl)c(Cl)c2n1` [I-835], the IC50 in experiment [1] was 2000 to 10000 nM; in experiment [2], below 2000 nM.

`O=C(O)CCOCCN(c1cc(-n2ccnc2)c2ccc(Cl)c(Cl)c2n1)C1CCCCC1` [I-836]: the concentration for half-maximal inhibition (IC50) in experiment [1] and in experiment [2] was below 2000 nM throughout.

For the compound `O=C(O)CCOCCN(Cc1ccccc1)c1cc(-n2ccnc2)c2ccc(Cl)c(Cl)c2n1` [I-837], the IC50 in experiment [1] and in experiment [2] was below 2000 nM in each case.

For `O=C(O)CCOCCN(CCO)c1cc(-n2ccnc2)c2ccc(Cl)c(Cl)c2n1` [I-838], the IC50 in experiment [1] was above 10000 nM; in experiment [2] it was below 2000 nM.

Regarding `O=C(O)CCOCCN(CCOCCC(=O)O)c1cc(-n2ccnc2)c2ccc(Cl)c(Cl)c2n1` [I-839], the IC50 in experiment [1] is above 10000 nM; in experiment [2], below 2000 nM.

For `O=C(O)CCOCc1cccc(-c2cc(-n3ccnc3)c3ccc(Cl)c(Cl)c3n2)c1` [I-840, 3-((3-(7,8-dichloro-4-(1H-imidazol-1-yl)quinolin-2-yl)benzyl)oxy)propanoic acid], the IC50 in experiment [1] and in experiment [2] was below 2000 nM each time.

Take `O=C(O)CCOCc1ccccc1-c1cc(-n2ccnc2)c2ccc(Cl)c(Cl)c2n1` [I-841]: the figures for the IC50 in experiment [1] and in experiment [2] were above 10000 nM and below 2000 nM, respectively.

Regarding `CN(CCOc1ccccc1C(=O)O)c1cc(-n2ccnc2)c2ccc(Cl)c(Cl)c2n1` [I-842], the IC50 in experiment [1] was 2000 to 10000 nM; in experiment [2] it was below 2000 nM.

With `CN(CCOc1cccc(CC(=O)O)c1)c1cc(-n2ccnc2)c2ccc(Cl)c(Cl)c2n1` [I-843], the IC50 in experiment [1] was 2000 to 10000 nM; in experiment [2], below 2000 nM.

As for `O=C(O)Cc1cccc(CNc2cc(-n3ccnc3)c3ccc(Cl)c(Cl)c3n2)c1` [I-844], the IC50 in experiment [1] and in experiment [2] was below 2000 nM in each case.

In the case of `CN(Cc1cccc(CC(=O)O)c1)c1cc(-n2ccnc2)c2ccc(Cl)c(Cl)c2n1` [I-845], the IC50 in experiment [1] and in experiment [2] was below 2000 nM in each case.

Take `CN(CCCOc1ccccc1C(=O)O)c1cc(-n2ccnc2)c2ccc(Cl)c(Cl)c2n1` [I-846]: the IC50 in experiment [1] and in experiment [2] was below 2000 nM in each case.

For `O=C(O)CCOC[C@@H]1CCCN1c1cc(-c2cn[nH]c2)c2cc(Cl)cc(Cl)c2n1` [I-853], the half-maximal inhibitory concentration (IC50) in experiment [1] and in experiment [2] was below 2000 nM throughout.

On to `O=C(O)CCCCCNc1cc(-c2cn[nH]c2)c2cc(Cl)cc(Cl)c2n1` [I-854], for which the IC50 in experiment [1] was above 10000 nM; in experiment [2], below 2000 nM.

As for `O=C(O)CCOC[C@@H]1CCCN1c1cc(-c2cn[nH]c2)c2c(Cl)cc(Cl)cc2n1` [I-855], the IC50 was above 10000 nM in experiment [1] and 2000 to 30000 nM in experiment [2].

Take `COc1ccc2c(-n3ccnc3)cc(N3CCC[C@H]3COCCC(=O)O)nc2c1Cl` [I-856]: the IC50 is 2000 to 10000 nM in experiment [1] and below 2000 nM in experiment [2].

Take `O=C(O)CCOC[C@@H]1CCCN1c1cc(-n2ccnc2)c2cc(Br)c(Cl)c(Cl)c2n1` [I-857]: the IC50 in experiment [1] and in experiment [2] was below 2000 nM in each case.

`COc1c(Cl)ccc2c(-n3ccnc3)cc(N3CCC[C@H]3COCCC(=O)O)nc12` [I-860]: the IC50 in experiment [1] was above 10000 nM; in experiment [2] it was below 2000 nM.

On to `O=C(O)CCOC[C@@H]1CCCN1c1cc(-n2ccnc2)c2ccc(Cl)c(Br)c2n1` [I-862], for which the IC50 in experiment [1] and in experiment [2] was below 2000 nM in each case.

In the case of `O=C(O)CCOC1CCN(c2cc(-n3ccnc3)c3ccc(Cl)c(Cl)c3n2)CC1` [I-864], the IC50 was above 10000 nM in experiment [1] and below 2000 nM in experiment [2].

For `O=C(O)CCOCC1CCCCCN1c1cc(-n2ccnc2)c2ccc(Cl)c(Cl)c2n1` (stereo not shown) [I-865], the IC50 in experiment [1] and in experiment [2] was below 2000 nM each time.

For `O=C(O)CCOCC1CCCCN(c2cc(-n3ccnc3)c3ccc(Cl)c(Cl)c3n2)C1` (stereo not shown) [I-866], the IC50 was 2000 to 10000 nM in experiment [1] and below 2000 nM in experiment [2].

For the compound `O=C(O)CCOCC1CN(c2cc(-n3ccnc3)c3ccc(Cl)c(Cl)c3n2)CCCO1` (stereo not shown) [I-867], the IC50 in experiment [1] and in experiment [2] was below 2000 nM in each case.
